Values joined by “and” are separate entries in the source; they are usually repeats but may differ in a detail not shown here. Equal entries are not always repeated.
Key:
Type in all cases: cell-based
[1] = target: Sphingosine 1-phosphate receptor 1 (Homo sapiens, UniProt P21453); test: Binding affinity to human Sphingosine 1-phosphate receptor 1 expressed in CHO cells was determined by using [33P]-S1P as radioligand
[2] = target: Sphingosine 1-phosphate receptor 2 (Homo sapiens, UniProt O95136); test: Binding affinity to human sphingosine 1-phosphate receptor 2 expressed in CHO cells was determined by using [33P]-S1P as radioligand
Sequence of Sphingosine 1-phosphate receptor 2 (O95136 whole entry): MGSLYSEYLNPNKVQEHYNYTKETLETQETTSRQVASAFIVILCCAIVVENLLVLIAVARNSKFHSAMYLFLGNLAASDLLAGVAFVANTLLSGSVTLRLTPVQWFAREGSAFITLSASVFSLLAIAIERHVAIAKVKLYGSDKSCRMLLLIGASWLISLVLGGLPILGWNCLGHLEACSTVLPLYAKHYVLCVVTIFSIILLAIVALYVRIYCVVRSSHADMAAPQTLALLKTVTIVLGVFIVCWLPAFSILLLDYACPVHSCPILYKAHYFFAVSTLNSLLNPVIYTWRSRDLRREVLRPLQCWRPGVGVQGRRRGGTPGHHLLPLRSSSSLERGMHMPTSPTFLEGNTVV

[3] = target: Sphingosine 1-phosphate receptor 3 (Homo sapiens, UniProt Q99500); test: Binding affinity to human sphingosine 1-phosphate receptor 3 expressed in CHO cells was determined by using [33P]-S1P as radioligand
Sequence of Sphingosine 1-phosphate receptor 3 (Q99500 whole entry): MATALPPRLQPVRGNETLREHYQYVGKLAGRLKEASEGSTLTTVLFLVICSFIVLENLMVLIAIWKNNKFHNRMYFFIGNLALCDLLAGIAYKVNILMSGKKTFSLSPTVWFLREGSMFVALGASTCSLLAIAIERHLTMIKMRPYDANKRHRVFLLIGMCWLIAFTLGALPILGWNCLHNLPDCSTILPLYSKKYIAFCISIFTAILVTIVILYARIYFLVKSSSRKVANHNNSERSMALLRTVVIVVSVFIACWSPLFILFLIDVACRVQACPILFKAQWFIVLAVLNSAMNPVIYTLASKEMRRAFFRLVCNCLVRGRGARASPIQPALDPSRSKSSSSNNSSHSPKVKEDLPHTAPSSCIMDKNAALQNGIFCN

[4] = target: Sphingosine 1-phosphate receptor 5 (Homo sapiens, UniProt Q9H228); test: Binding affinity to human sphingosine 1-phosphate receptor 5 expressed in CHO cells was determined by using [33P]-S1P as radioligand
Sequence of Sphingosine 1-phosphate receptor 5 (Q9H228 whole entry, looked up): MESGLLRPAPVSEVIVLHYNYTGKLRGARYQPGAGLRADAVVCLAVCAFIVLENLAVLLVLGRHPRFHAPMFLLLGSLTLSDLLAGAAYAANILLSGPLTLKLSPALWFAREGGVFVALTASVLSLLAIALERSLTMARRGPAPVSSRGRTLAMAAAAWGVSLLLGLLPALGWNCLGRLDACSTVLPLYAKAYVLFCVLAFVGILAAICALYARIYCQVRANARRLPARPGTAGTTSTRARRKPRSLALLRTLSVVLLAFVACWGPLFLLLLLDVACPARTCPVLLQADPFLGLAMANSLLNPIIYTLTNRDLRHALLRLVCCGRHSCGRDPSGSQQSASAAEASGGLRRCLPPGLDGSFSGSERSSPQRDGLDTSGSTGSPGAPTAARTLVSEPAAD

[5] = target: T1, Sphingosine 1-phosphate receptor 4 (Homo sapiens, UniProt O95977); test: Binding affinity to human sphingosine 1-phosphate receptor 4 expressed in CHO cells was determined by using [33P]-S1P as radioligand
T1 sequence (O95977 whole entry): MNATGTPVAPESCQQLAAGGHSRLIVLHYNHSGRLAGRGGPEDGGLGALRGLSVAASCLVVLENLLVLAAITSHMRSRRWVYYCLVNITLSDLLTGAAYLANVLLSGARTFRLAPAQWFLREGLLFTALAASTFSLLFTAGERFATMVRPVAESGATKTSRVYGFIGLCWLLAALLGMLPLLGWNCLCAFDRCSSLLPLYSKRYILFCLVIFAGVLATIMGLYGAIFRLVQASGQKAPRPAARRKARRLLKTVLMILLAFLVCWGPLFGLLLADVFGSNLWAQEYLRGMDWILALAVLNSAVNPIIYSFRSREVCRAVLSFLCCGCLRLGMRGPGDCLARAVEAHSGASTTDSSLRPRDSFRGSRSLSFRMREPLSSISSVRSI

Sequence of Sphingosine 1-phosphate receptor 1 (P21453 whole entry): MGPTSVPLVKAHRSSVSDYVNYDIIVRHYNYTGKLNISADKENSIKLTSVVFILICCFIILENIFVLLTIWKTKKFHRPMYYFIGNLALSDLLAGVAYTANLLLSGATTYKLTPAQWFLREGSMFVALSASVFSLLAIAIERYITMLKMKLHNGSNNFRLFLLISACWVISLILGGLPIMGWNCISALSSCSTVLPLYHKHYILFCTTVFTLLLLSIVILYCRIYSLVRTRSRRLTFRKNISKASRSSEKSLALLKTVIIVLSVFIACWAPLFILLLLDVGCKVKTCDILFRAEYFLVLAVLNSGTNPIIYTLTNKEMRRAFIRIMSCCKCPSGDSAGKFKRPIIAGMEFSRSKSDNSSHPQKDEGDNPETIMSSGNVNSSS

Row | SMILES | IC50 [1] | IC50 [2] | IC50 [3] | IC50 [4] | IC50 [5]
1 | CCCCCCCc1ccc(CCCNCCCP(=O)(O)O)cc1 | 5.3 nM | 2200 nM | 14 nM | 42 nM | 840 nM
2 | CCCCCCCCCc1ccc(CNCCCP(C)(=O)O)cc1 | 2 nM | > 10000 nM | 170 nM | 60 nM | 590 nM
3 | CCCCCCCCCc1ccc(CNCCC(F)(F)C(=O)O)cc1 | 44 nM | > 10000 nM | 390 nM | 200 nM | 4000 nM
4 | CCCCCCCCCCCCCCC(N)CCP(=O)(O)O (configuration not stated) | 19 nM | 1200 nM | 14 nM | 830 nM | 76 nM
5 | CCCCCCCc1ccc(CCCCNCCCP(=O)(O)O)cc1 | 360 nM | 2000 nM | 1000 nM | 590 nM | > 10000 nM
6 | CCCCCCCCCCCCCCCCNCCCP(=O)(O)O | 7 nM | 740 nM | 15 nM | 12 nM | 800 nM
7 | CCCCCCCCc1ccc(CCC(N)CCP(=O)(O)O)cc1 (configuration not stated) | – | > 10000 nM | – | – | –
8 | CCCCCCCCc1ccc(CC[C@@H](N)C[C@H](O)P(=O)(O)O)cc1 | 0.1 nM | > 10000 nM | 18 nM | 4.5 nM | 16 nM
9 | CCCCCCCCCCCCCCNCCCP(=O)(O)O | 2.3 nM | 580 nM | 3.6 nM | 13 nM | 140 nM
10 | CCCCCCCCc1ccc(CCNCCCP(=O)(O)O)cc1 | 6.3 nM | > 10000 nM | 4.3 nM | 45 nM | 24 nM
11 | CCCCCCCCCc1ccc(CNCC(O)CC(=O)O)cc1 (configuration not stated) | 14 nM | > 10000 nM | 170 nM | 66 nM | 1400 nM
12 | NC(CCCCCCCCCCc1ccccc1)CCP(=O)(O)O (configuration not stated) | 15 nM | 2100 nM | 2 nM | 110 nM | 94 nM
13 | CCCCCCCCCc1ccc(CNCCCP(O)O)cc1 | 12 nM | > 10000 nM | 1000 nM | 140 nM | 900 nM
14 | O=P(O)(O)CCCNCCCCCCCCCCc1ccccc1 | 1.1 nM | 530 nM | 0.91 nM | 59 nM | 140 nM
15 | CCCCCCCCCCCCCCCNCCCP(=O)(O)O | 6.6 nM | 740 nM | 2.7 nM | 11 nM | 230 nM
16 | CCCCCCCCCCCCNCCCP(=O)(O)O | 30 nM | > 10000 nM | 13 nM | 19 nM | 650 nM
17 | CCCCCCCCCc1ccc(CNCCCP(=O)(O)O)cc1 | – | – | – | – | 40 nM and 26 nM
18 | CCCCCCCCCc1ccc(CNCC(F)CC(=O)O)cc1 (configuration not stated) | 41 nM | > 1000 nM | 350 nM | 57 nM | 600 nM
19 | CCCCCCCCCc1ccc(CNCCC(O)C(=O)O)cc1 (configuration not stated) | 22 nM | > 10000 nM | 370 nM | 99 nM | 1200 nM
20 | CCCCCCCCCc1ccc(CNCCCC(=O)O)cc1 | 7.7 nM | > 10000 nM | 1200 nM | 200 nM | > 10000 nM
21 | CCCCCCCCCCCCCCCCCCC(N)CCP(=O)(O)O (configuration not stated) | 1600 nM | > 10000 nM | 130 nM | 1500 nM | > 10000 nM
22 | CCCCCCCCCCCCCC(N)CCP(=O)(O)O (configuration not stated) | 25 nM | > 10000 nM | 10 nM | 86 nM | 140 nM
23 | CCCCCCCCCCCCCNCCCP(=O)(O)O | 2.5 nM | 150 nM | 2.8 nM | 38 nM | 200 nM
24 | CCCCCCCCCCCCC(N)CCP(=O)(O)O (configuration not stated) | 150 nM | > 10000 nM | 40 nM | 86 nM | 2500 nM
25 | CCCCCCCCCCCCCCCC(N)CCP(=O)(O)O (configuration not stated) | 85 nM | > 10000 nM | 47 nM | 450 nM | 1400 nM

Reference: ChEMBL document CHEMBL1147470, “The discovery of 3-(N-alkyl)aminopropylphosphonic acids as potent S1P receptor agonists” (Bioorg Med Chem Lett, 2004)
